Experimental data: article PMC8161026, “Synthesis and Anticancer Activity Evaluation of 5-[2-Chloro-3-(4-nitrophenyl)-2-propenylidene]-4-thiazolidinones” (Molecules, 2021)

Key:
[1] = test system: EKVX; assay: cells; details: Homo sapiens, 48 h
[2] = test system: Prostate Cancer subpanel; assay: cells
Experimental: (§1) At the first stage of biological activity study, the antitumor activity screening of the selected compounds 2b, 2c, 2f, 2h, and 2j was performed according to the NCI DTP (USA) standard protocol at the concentrations ranging from 10^−4 to 10^−8 M toward 60 tumor cell lines. The percentage of growth was evaluated spectrophotometrically versus controls not treated with test agents after 48 h exposure and using SRB protein assay to estimate cell viability or growth. Dose–response parameters were calculated for each cell line: GI50—molar concentration of the compound that inhibits 50% net cell growth; TGI—molar concentration of the compound leading to the total inhibition; and LC50—molar concentration of the compound leading to 50% net cell death. Furthermore, mean graph midpoints (MG_MID) were calculated for each of the parameters, giving an average activity parameter over all cell lines for the tested compound. For the MG_MID calculation, insensitive cell lines were included with the highest concentration tested.
(§2) The selectivity index (SI) obtained by dividing the full panel MG-MID (mM) of the tested compound by their individual subpanel MG-MID (mM) was considered as a measure of selectivity of anticancer activity (Table 3).
(§3) Primary anticancer assay was performed on a panel of approximately sixty human tumor cell lines derived from nine neoplastic diseases, in accordance with the protocol of the Drug Evaluation Branch, National Cancer Institute, Bethesda. Tested compounds were added to the culture at a single concentration (10^−5 M) and the cultures were incubated for 48 h. End point determinations were made with a protein binding dye, sulforhodamine B (SRB). […] The percentage growth was evaluated spectrophotometrically versus controls not treated with test agents.
(§4) Dose–response parameters (GI50, TGI, LC50) were calculated for each compound. […] The drug concentration resulting in total growth inhibition (TGI) was calculated from Ti = Tz. The LC50 (concentration of drug resulting in a 50% reduction in the measured protein at the end of the drug treatment as compared to that at the beginning) indicating a net loss of cells following treatment was calculated from [(Ti − Tz)/Tz] × 100 = −50 (2). Values were calculated for each of these parameters if the level of activity was reached; however, if the effect was not reached or was excessive, the value for that parameter was expressed as more or less than the maximum or minimum concentration tested.

[3] = test system: CNS Cancer subpanel; assay: cells
Experimental: as §1, §2, §3, §4

[4] = test system: Ovarian Cancer subpanel; assay: cells
Experimental: as §1, §2, §3, §4

[5] = test system: Leukemia subpanel; assay: cells
Experimental: as §1, §2, §3, §4

[6] = test system: Melanoma subpanel; assay: cells
Experimental: as §1, §2, §3, §4

[7] = test system: Non-Small Cell Lung Cancer subpanel; assay: cells
Experimental: as §1, §2, §3, §4

[8] = test system: Colon Cancer subpanel; assay: cells
Experimental: as §1, §2, §3, §4

[9] = test system: Renal Cancer subpanel; assay: cells
Experimental: as §1, §2, §3, §4

[10] = test system: Breast Cancer subpanel; assay: cells
Experimental: as §1, §2, §3, §4

[11] = test system: OVCAR-3; assay: NCI DTP 60 cell line screen, SRB
[12] = test system: SF-295; assay: NCI DTP 60 cell line screen, SRB
[13] = test system: DU-145; assay: cells; details: Homo sapiens, DU-145, 48 h
[14] = test system: Colo 205; assay: NCI DTP 60 cell line screen, SRB
[15] = test system: KM12; assay: cells; details: Homo sapiens, KM12, 48 h
[16] = test system: MOLT-4; assay: cells; details: Homo sapiens, MOLT-4, 48 h
[17] = test system: SK-OV-3; assay: NCI DTP 60 cell line screen, SRB
[18] = Homo sapiens, read-out: MG_MID, GI50
[19] = full panel MG_MID / Prostate Cancer subpanel MG_MID
[20] = Homo sapiens, read-out: MG_MID, LC50
[21] = full panel MG_MID / CNS Cancer subpanel MG_MID
[22] = full panel MG_MID / Ovarian Cancer subpanel MG_MID
[23] = full panel MG_MID / Leukemia subpanel MG_MID
[24] = full panel MG_MID / Melanoma subpanel MG_MID
[25] = full panel MG_MID / Non-Small Cell Lung Cancer subpanel MG_MID
[26] = full panel MG_MID / Colon Cancer subpanel MG_MID
[27] = full panel MG_MID / Renal Cancer subpanel MG_MID
[28] = full panel MG_MID / Breast Cancer subpanel MG_MID

O=C1/C(=C/C(Cl)=C/c2ccc([N+](=O)[O-])cc2)SC(=S)N1/N=C\C(Cl)=C\c1ccc([N+](=O)[O-])cc1 [Compound 2c, 5-[(Z,2Z)-2-Chloro-3-(4-nitrophenyl)-2-propenylidene]-3-[(Z,2Z)-2-chloro-3-(4-nitrophenyl)-2-propenylideneamino]-2-thioxo-4-thiazolidinone]
GI50 [1]: 23.7 µM
CC50 ([1]; read-out: LC50): 96.1 µM
GI50 [2, 18]: 14.9 µM
SI (selectivity index), GI50 [2, 19]: 1.21
SI (selectivity index), LC50 [2, 19]: 1.09
SI (selectivity index), TGI [2, 19]: 0.95
MG_MID, TGI ([3]; CNS Cancer panel mean): 52.1 µM
GI50 [3, 18]: 23.4 µM
CC50 [3, 20]: 88.6 µM
SI (selectivity index), GI50 [3, 21]: 0.77
SI (selectivity index), LC50 [3, 21]: 0.92
SI (selectivity index), TGI [3, 21]: 0.83
GI50 [4, 18]: 18.2 µM
CC50 [4, 20]: 59 µM
MG_MID, TGI ([4]; Ovarian Cancer panel mean): 36.2 µM
SI (selectivity index), GI50 [4, 22]: 0.99
SI (selectivity index), LC50 [4, 22]: 1.38
SI (selectivity index), TGI [4, 22]: 1.19
GI50 [5, 18]: 3.83 µM
CC50 [5, 20]: 90 µM
MG_MID, TGI ([5]; Leukemia panel mean): 18.6 µM
SI (selectivity index), GI50 [5, 23]: 4.70
SI (selectivity index), LC50 [5, 23]: 0.91
SI (selectivity index), TGI [5, 23]: 2.32
GI50 [6, 18]: 17.7 µM
CC50 [6, 20]: 74.3 µM
MG_MID, TGI ([6]; Melanoma panel mean): 38.0 µM
SI (selectivity index), GI50 [6, 24]: 1.02
SI (selectivity index), LC50 [6, 24]: 1.10
SI (selectivity index), TGI [6, 24]: 1.13
GI50 [7, 18]: 25.9 µM
CC50 [7, 20]: 83 µM
MG_MID, TGI ([7]; Non-Small Cell Lung Cancer panel mean): 44.8 µM
SI (selectivity index), GI50 [7, 25]: 0.69
SI (selectivity index), LC50 [7, 25]: 0.98
SI (selectivity index), TGI [7, 25]: 0.96
MG_MID, TGI ([8]; Colon Cancer panel mean): 59.7 µM
GI50 [8, 18]: 20.7 µM
CC50 [8, 20]: 77.8 µM
SI (selectivity index), GI50 [8, 26]: 0.87
SI (selectivity index), LC50 [8, 26]: 1.05
SI (selectivity index), TGI [8, 26]: 0.72
GI50 [9, 18]: 16.9 µM
CC50 [9, 20]: 80.1 µM
MG_MID, TGI ([9]; Renal Cancer panel mean): 43.3 µM
SI (selectivity index), GI50 [9, 27]: 1.07
SI (selectivity index), LC50 [9, 27]: 1.02
SI (selectivity index), TGI [9, 27]: 1.00
MG_MID, TGI ([10]; Breast Cancer panel mean): 51.3 µM
GI50 [10, 18]: 17.5 µM
CC50 [10, 20]: 90.2 µM
SI (selectivity index), GI50 [10, 28]: 1.03
SI (selectivity index), LC50 [10, 28]: 0.91
SI (selectivity index), TGI [10, 28]: 0.84
GI50 ([11]; Homo sapiens, OVCAR-3, 48 h): 0.821 µM
CC50 ([11]; Homo sapiens, OVCAR-3, 48 h, read-out: LC50): 41.1 µM
TGI ([11]; OVCAR-3 (Ovarian Cancer), 48 h, SRB): 12.7 µM
GI50 ([12]; Homo sapiens, SF-295, 48 h): 18 µM
CC50 ([12]; Homo sapiens, SF-295, 48 h, read-out: LC50): 77.1 µM
TGI ([12]; SF-295 (CNS Cancer), 48 h, SRB): 37.3 µM
GI50 [13]: 21.7 µM
CC50 ([13]; read-out: LC50): > 100 µM
TGI ([14]; Colo 205 (Colon Cancer), 48 h, SRB): > 100 µM
GI50 ([14]; Homo sapiens, COLO 205, 48 h): 56.2 µM
CC50 ([14]; Homo sapiens, COLO 205, 48 h, read-out: LC50): > 100 µM
GI50 [15]: 20.6 µM
CC50 ([15]; read-out: LC50): > 100 µM
GI50 [16]: 3.2 µM
CC50 ([16]; read-out: LC50): 52.5 µM
GI50 ([17]; Homo sapiens, SK-OV-3, 48 h): 59.6 µM
CC50 ([17]; Homo sapiens, SK-OV-3, 48 h, read-out: LC50): > 100 µM
TGI ([17]; SK-OV-3 (Ovarian Cancer), 48 h, SRB): > 100 µM
